Legend:
[1] = cited from earlier work
[2] = tested on: Pseudomonas aeruginosa; test: chlorine dioxide (ClO2) and TTPC versus Pseudomonas aeruginosa, log reduction; assay type: cell-based; details: 10^5 ml
Method: A test with chlorine dioxide (ClO2) and TTPC versus Pseudomonas aeruginosa was performed at 10^5 ml with ClO2 of 10 ppm. This alone gave a 1 log reduction in 30 min exposure. TTPC alone at 50 ppm gave a 2 log reduction. The combination of ClO2 and TTPC of 5ppm and 10 ppm gave a 5 log reduction in 30 min.

[3] = tested on: acid-producing bacteria (APB); test: effective kill time of acid-producing bacteria; assay type: cell-based
Method: (§1) When TTPC was added to the core glutaraldehyde or OPA as a substitute for dual chain quaternary ammonium the effective kill time was twice as fast (2×) based upon log reduction. Similarly, the TTPC reduced the effective kill time of acid-producing bacteria (APB) by almost 50%. Although the kill speed of TTPC alone was 20% slower than the glut/quat formula of copending U.S. patent application Ser. No. 12/584,648, when incorporated with glutaraldehyde as a substitute for dual chain quaternary ammonium the kill time […] to four times faster, evidencing the synergism of the present combination.

[4] = minimum inhibitory concentration (MIC); assay type: cell-based
Excerpt: (§2) As such there is actually a slight increase in planktonic microbes which are more susceptible to biocide/TTPC effects. Individual biocides affect the physiology of the cell quite differently. […] This is an example of enhanced […]. The importance of the environmental parameter cannot be underestimated based upon the foregoing results. TTPC has a similar margin of exposure as the quats used for killing of aerobic organisms. […] The minimum inhibitory concentration (MIC) for the TTPC usage is 50-500 ppm. Therefore it is safe regarding corrosiveness, an important facet in instrument sterilization. […] The faster cidal action is due basically to the chemistry difference between amine quats and phosphonium salts. The ammonium quats have longer alkyl chains. Instead of amine the difference is a phosphonium ion but also importantly is the alkyl chain length. It has been determined that there is an optimal length for anti-bacterial effectiveness. It was dependent upon chain length and attachment moieties. […] Usually the longer chain was better but not in these cases. […] TTPC did. There are great differences between Gram + and Gram − bacteria in their cell walls. […] The Gram − wall is complicated. It has in addition to the wall of G+ an outer membrane of lipopolysaccharide and phospholipids that protects the cell.

[5] = tested on: MRSA, B. subtillis, E coli, pseudomonas aeruginosa, candida; test: kill of test microorganisms in allotted time of 30 minutes; assay type: cell-based
Excerpt: as §2

[6] = effectiveness based upon a 5 log reduction in oil frac water; assay type: cell-based
Excerpt: as §2

[7] = effective kill time based upon log reduction, TTPC versus dual chain quaternary ammonium; assay type: cell-based; details: TTPC alone
Method: as §1

[8] = tested on: sulfur reducing bacteria (SRB); test: efficacy on sulfur reducing bacteria; assay type: cell-based
Excerpt: as §2

With `O=Cc1ccccc1C=O` [OPA, orthophthalaldehyde] as the molecule, how does the disinfection time ([1]; high level disinfectant, 20-22 degrees C.) read?
The disinfection time was “twelve”.

With `[O][Cl+][O-]` [ClO2, chlorine dioxide] as the molecule, how does the log reduction ([2]; ClO2 of 10 ppm alone, 30 min exposure) read?
The log reduction was 1 log reduction.

For `O=CCCCC=O` [glutaraldehyde, Glutaraldehyde], which “residence time for disinfection” value ([1]; controlled temperature from 20 C to 25-30 C) is on record?
Its value is 45 to 90 min.

With `CCCCCCCCCCCCCC[P+](CCCC)(CCCC)CCCC.[Cl-]` [TTPC, tributyl tetradecyl phosphonium chloride] as the molecule, how does the log reduction ([2]; TTPC alone at 50 ppm) read?
Its log reduction is 2 log reduction.

What about the “reduction of effective kill time” value [3] of the same molecule?
The value was about 50%.

And the “minimum inhibitory concentration (MIC)” value [4]?
The value was 50-500 ppm.

What about the “kill of all the test bacteria in the allotted time” value [5] of the same molecule?
Its value is “did”.

What about the “effectiveness relative to original glut/quat formula” value [6] of the same molecule?
The value was 2 ×.

What about the “kill speed slower than the glut/quat formula” value [7] of the same molecule?
Its value is 20%.

What about the “efficacy on sulfur reducing bacteria (SRB)” value [8] of the same molecule?
Its value is “almost equally effective”.

— patent US20130251822A1, “BIOCIDAL ALDEHYDE COMPOSITION” (priority 2011, published 2013)
